Measurements taken from ChEMBL document CHEMBL3414499, “Characterization of two distinct structural classes of selective aldehyde dehydrogenase 1A1 inhibitors” (J Med Chem, 2015).
The source made the active and inactive calls. The calls are words filed in the database; no cut-off is given here.

What was measured:
[1] = target: T1, Aldehyde dehydrogenase, mitochondrial (Homo sapiens) (UniProt P05091); experiment: Activation of recombinant human ALDH2 using propionaldehyde as substrate at 20 uM preincubated for 2 mins with NAD+ followed by substrate addition by UV-Vis spectrophotometric analysis
T1 sequence (whole entry): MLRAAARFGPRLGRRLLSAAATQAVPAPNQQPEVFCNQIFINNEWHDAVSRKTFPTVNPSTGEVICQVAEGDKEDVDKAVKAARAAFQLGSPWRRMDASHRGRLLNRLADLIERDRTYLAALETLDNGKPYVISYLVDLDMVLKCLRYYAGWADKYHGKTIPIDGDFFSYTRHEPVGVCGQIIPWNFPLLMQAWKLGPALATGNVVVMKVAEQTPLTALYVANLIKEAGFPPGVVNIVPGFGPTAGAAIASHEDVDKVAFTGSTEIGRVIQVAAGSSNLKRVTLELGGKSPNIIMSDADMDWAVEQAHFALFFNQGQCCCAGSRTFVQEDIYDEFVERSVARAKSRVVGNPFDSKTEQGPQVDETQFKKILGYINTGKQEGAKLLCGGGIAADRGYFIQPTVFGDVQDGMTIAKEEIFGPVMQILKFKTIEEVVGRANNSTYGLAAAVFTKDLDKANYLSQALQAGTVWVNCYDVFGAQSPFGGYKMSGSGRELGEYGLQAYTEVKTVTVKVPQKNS

[2] = target: T2, Retinaldehyde dehydrogenase 3 (Homo sapiens) (UniProt P47895); experiment: Activation of recombinant human ALDH1A3 using propionaldehyde as substrate at 100 uM preincubated for 2 mins with NAD+ followed by substrate addition by UV-Vis spectrophotometric analysis
T2 sequence (whole entry): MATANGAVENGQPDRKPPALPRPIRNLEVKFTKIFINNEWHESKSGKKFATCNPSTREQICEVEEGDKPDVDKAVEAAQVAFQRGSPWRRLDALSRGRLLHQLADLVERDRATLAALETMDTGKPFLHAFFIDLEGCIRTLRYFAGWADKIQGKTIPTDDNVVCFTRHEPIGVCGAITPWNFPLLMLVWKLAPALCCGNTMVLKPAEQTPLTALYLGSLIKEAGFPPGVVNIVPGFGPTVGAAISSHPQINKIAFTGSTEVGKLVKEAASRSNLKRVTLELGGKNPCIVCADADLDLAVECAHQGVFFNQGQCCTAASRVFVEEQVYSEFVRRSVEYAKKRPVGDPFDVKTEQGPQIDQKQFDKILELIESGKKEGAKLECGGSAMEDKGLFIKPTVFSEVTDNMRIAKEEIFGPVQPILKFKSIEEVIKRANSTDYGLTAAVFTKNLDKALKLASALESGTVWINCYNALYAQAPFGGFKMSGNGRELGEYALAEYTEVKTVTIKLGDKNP

[3] = target: T3, Aldehyde dehydrogenase, dimeric NADP-preferring (Homo sapiens) (UniProt P30838); experiment: Activation of recombinant human ALDH3A1 using benzaldehyde as substrate at 20 uM preincubated for 2 mins with NAD+ followed by substrate addition by UV-Vis spectrophotometric analysis
T3 sequence (whole entry): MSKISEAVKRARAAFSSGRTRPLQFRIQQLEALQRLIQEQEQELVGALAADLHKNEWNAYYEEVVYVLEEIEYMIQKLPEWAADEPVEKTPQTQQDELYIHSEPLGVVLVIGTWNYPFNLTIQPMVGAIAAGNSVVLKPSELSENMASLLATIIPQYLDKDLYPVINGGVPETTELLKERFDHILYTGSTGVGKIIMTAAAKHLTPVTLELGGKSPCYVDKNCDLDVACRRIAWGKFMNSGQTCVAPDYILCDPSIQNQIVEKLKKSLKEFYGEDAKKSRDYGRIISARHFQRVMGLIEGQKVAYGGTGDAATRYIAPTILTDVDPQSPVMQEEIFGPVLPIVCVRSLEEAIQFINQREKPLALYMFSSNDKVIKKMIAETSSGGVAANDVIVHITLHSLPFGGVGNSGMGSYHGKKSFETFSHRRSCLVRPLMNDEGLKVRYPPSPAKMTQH

[4] = target: T4, Retinal dehydrogenase 2 (Homo sapiens) (UniProt O94788); experiment: Activation of recombinant human ALDH1A2 using propionaldehyde as substrate at 20 uM preincubated for 2 mins with NAD+ followed by substrate addition by UV-Vis spectrophotometric analysis
T4 sequence (whole entry): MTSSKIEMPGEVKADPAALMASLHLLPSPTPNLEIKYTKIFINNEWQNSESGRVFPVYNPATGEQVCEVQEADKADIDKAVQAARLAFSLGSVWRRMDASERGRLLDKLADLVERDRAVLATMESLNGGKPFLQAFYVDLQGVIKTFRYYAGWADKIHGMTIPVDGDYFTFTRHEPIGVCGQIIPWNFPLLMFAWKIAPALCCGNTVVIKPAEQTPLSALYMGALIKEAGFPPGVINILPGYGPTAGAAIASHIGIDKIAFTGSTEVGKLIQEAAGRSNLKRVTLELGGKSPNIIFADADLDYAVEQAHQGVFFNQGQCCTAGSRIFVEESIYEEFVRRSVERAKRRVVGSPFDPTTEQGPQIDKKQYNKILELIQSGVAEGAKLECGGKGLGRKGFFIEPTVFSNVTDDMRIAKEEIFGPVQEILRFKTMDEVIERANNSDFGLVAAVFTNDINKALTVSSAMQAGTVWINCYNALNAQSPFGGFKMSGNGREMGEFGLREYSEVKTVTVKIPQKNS

[5] = target: T2, Retinaldehyde dehydrogenase 3 (Homo sapiens); experiment: Activation of recombinant human ALDH1A3 using propionaldehyde as substrate at 20 uM preincubated for 2 mins with NAD+ followed by substrate addition by UV-Vis spectrophotometric analysis
[6] = target: T1, Aldehyde dehydrogenase, mitochondrial (Homo sapiens); experiment: Inhibition of recombinant human ALDH2 using propionaldehyde as substrate at 100 uM preincubated for 2 mins with NAD+ followed by substrate addition by UV-Vis spectrophotometric analysis
[7] = target: T5, Aldehyde dehydrogenase X, mitochondrial (Homo sapiens) (UniProt P30837); experiment: Activation of recombinant human ALDH1B1 using propionaldehyde as substrate at 20 uM preincubated for 2 mins with NAD+ followed by substrate addition by UV-Vis spectrophotometric analysis
T5 sequence (whole entry): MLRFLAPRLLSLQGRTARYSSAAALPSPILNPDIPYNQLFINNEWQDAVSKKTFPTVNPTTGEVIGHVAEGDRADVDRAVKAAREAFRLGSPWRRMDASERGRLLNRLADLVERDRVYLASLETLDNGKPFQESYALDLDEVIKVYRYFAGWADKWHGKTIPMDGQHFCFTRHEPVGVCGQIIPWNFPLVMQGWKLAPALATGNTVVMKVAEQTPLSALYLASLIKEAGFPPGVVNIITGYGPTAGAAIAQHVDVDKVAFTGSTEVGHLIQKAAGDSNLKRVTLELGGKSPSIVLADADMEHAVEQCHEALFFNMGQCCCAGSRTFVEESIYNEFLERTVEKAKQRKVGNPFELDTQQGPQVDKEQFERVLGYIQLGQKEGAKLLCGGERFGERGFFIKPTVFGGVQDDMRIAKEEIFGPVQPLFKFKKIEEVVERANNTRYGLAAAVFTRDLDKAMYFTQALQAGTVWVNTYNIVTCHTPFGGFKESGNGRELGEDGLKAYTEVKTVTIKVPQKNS

Row | Activity [1] | Activity [2] | Activity [3] | Activity [4] | Activity [5] | inhibition [6] | Activity [7] | SMILES
1 | < 10% | Active | < 10% | < 10% | < 10% | inactive | < 10% | Cn1c(=O)c2c(nc(N3CCN(Cc4ccccc4)CC3)n2Cc2cccc(Cl)c2)n(C)c1=O
2 | < 10% |  | < 10% | < 10% | < 10% | inactive | < 10% | CCN1CCN(Cc2nc3c(c(=O)n(C)c(=O)n3C)n2CC(=O)c2ccccc2)CC1
3 | < 10% | Active | < 10% | < 10% | < 10% |  | < 10% | CC(C)CCn1c(CN(C)Cc2ccccc2)nc2c1c(=O)n(C)c(=O)n2C
4 | < 10% | Active | < 10% | < 10% | < 10% | inactive | < 10% | CC(C)CCn1c(CN2CCN(C(=O)c3ccco3)CC2)nc2c1c(=O)n(C)c(=O)n2C
5 | < 10% | Active | < 10% | < 10% | < 10% | inactive | < 10% | Cn1c(=O)c2c(nc(SCC(N)=O)n2Cc2ccccc2F)n(C)c1=O
6 | < 10% |  | < 10% | < 10% | < 10% |  | < 10% | CCCCn1c(CN2CCN(c3cccc(Cl)c3)CC2)nc2c1c(=O)n(C)c(=O)n2C
7 | < 10% |  | < 10% | < 10% | < 10% |  | < 10% | CC(C)CCn1c(CN2CCOCC2)nc2c1c(=O)n(C)c(=O)n2C
8 | < 10% | Active | < 10% | < 10% | < 10% | inactive | < 10% | Cn1c(=O)c2c(nc(N3CCOCC3)n2Cc2ccccc2F)n(C)c1=O
9 | < 10% |  | < 10% | < 10% | < 10% | inactive | < 10% | CCCCn1c(CN2CCN(c3ccc(OC)cc3)CC2)nc2c1c(=O)n(C)c(=O)n2C
10 | < 10% | Active | < 10% | < 10% | < 10% | inactive | < 10% | CCCCn1c(Oc2ccc(C(=O)OC)cc2)nc2c1c(=O)n(C)c(=O)n2C
11 | < 10% |  | < 10% | < 10% | < 10% |  | < 10% | Cn1c(=O)c2c(nc(CN3CCC(C(N)=O)CC3)n2CCCc2ccccc2)n(C)c1=O
